The source made the active and inactive calls.

For one test, the target named is T1, Bcl-2-like protein 10 (Homo sapiens, UniProt Q9HD36).
T1 sequence (Q9HD36 whole entry): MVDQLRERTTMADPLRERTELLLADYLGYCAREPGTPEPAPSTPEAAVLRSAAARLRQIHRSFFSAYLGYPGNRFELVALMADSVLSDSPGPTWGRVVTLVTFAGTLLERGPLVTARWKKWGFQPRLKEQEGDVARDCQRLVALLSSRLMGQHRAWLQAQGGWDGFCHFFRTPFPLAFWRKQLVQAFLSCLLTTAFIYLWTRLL
Kind of test: displacers of TR3 peptide from Bcl-B, primary screen, selectivity assay for Bfl-1 inhibitor project, biochemical, fluorescence polarization, FITC-TR3 peptide (AID 748).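 Further: fluorescence polarization from a fluorescein-labelled TR3 peptide binding purified Bcl-B.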

The target in test [1] is Matrix metalloproteinase-14 (Homo sapiens, UniProt P50281). The test is described as follows: Dose Response confirmation of uHTS hits for a small molecule inhibitors of MT1-MMP activation in a fluorescence assay set 1. The test is classed as functional.
For test [2], the target named is T2, Histone-lysine N-methyltransferase NSD2 (Homo sapiens, UniProt O96028).
T2 sequence (O96028 whole entry): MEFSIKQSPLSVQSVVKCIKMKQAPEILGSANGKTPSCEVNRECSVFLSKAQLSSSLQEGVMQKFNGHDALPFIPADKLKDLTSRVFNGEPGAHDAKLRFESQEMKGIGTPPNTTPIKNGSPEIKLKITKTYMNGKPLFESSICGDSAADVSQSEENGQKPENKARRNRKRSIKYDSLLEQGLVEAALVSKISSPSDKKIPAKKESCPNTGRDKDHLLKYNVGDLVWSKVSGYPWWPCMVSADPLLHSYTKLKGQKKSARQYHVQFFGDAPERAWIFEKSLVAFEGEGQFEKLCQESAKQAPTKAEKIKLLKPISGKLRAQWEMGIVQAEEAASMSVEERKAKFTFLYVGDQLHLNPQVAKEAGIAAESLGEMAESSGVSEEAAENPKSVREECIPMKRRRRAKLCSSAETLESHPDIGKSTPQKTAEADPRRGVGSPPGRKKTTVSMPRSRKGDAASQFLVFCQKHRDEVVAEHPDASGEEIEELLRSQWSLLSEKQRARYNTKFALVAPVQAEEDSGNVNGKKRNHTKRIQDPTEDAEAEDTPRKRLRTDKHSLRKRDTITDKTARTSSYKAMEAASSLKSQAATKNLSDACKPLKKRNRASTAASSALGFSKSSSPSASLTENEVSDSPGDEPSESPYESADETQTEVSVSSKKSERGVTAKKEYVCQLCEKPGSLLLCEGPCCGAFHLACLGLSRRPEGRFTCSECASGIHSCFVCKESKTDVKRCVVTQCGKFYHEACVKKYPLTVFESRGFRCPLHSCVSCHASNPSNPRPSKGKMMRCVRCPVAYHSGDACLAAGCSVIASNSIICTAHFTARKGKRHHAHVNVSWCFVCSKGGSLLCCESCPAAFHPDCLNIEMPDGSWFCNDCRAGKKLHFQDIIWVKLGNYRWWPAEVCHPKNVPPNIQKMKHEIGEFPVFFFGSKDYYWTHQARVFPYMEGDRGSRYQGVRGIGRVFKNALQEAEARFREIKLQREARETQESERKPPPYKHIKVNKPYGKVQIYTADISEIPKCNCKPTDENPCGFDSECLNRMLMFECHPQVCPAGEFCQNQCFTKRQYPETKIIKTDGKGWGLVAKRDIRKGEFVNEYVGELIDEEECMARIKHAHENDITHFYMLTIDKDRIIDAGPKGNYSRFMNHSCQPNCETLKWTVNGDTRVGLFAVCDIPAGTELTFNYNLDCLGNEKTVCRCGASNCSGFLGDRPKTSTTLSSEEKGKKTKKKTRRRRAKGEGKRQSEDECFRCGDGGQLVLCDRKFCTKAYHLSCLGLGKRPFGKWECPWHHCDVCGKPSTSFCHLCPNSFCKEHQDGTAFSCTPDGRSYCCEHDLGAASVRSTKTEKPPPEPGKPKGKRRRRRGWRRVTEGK
The test is classed as biochemical.

Test [3] has as its target T3, Sentrin-specific protease 6 (Homo sapiens, UniProt Q9GZR1).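 Further: Luminescence-based dose-response confirmatory assay of SENP6 inhibition, following up an ultra-high-throughput screen.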
T3 sequence (Q9GZR1 whole entry): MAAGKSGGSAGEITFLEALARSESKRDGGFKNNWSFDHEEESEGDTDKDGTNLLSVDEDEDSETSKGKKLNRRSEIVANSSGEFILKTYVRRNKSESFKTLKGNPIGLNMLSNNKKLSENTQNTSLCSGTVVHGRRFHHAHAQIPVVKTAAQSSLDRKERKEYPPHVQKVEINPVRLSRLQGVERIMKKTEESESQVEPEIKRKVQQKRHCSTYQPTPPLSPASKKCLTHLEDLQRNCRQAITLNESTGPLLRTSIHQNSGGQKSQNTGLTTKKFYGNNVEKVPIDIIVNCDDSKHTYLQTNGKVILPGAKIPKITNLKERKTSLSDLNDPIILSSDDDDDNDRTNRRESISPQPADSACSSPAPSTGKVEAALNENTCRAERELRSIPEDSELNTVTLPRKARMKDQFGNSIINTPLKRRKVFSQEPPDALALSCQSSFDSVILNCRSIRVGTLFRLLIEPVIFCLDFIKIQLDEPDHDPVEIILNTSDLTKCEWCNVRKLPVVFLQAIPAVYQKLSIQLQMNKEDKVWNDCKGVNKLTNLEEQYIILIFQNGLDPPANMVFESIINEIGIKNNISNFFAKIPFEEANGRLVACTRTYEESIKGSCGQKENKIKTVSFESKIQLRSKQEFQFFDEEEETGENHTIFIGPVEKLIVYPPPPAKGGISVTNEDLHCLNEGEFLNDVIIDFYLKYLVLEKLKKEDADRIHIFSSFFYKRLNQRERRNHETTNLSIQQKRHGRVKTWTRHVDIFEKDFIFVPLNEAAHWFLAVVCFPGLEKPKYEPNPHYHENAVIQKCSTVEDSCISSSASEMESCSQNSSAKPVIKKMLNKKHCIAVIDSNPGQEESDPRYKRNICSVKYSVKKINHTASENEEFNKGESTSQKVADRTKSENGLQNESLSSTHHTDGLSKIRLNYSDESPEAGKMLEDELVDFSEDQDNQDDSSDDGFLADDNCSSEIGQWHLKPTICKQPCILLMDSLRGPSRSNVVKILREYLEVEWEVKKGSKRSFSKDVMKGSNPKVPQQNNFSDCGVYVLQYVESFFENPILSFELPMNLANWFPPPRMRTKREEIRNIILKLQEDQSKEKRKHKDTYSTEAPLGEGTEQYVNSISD
The test is classed as functional.

In general, IC50 refers to the midpoint of a concentration-inhibition curve. What is called AC50 is the concentration giving half of the maximal activity seen. For `CC1CC(C)CN(C(=O)c2ccc3c(c2NCCO)C(=O)c2ccccc2C3=O)C1` (centres undefined), the concentration for half-maximal inhibition (IC50) on Bcl-2-like protein 10 was 29.1 µM (active); in test [1], 69 µM (inactive). For the same compound, in test [2], the AC50 is 19.3 µM (active).

`CCC(=O)N(C1=C(NC)C(=O)c2ccccc2C1=O)C(C)C`: the half-inhibitory concentration (IC50) in test [3] was 16.7 µM (active).

(Values after ChEMBL document CHEMBL1201862, “PubChem BioAssay data set” (2004).)
